From patent EP0153845A2, “CRF analogs” (THE SALK INSTITUTE FOR BIOLOGICAL STUDIES, priority 1984, dated 1985)
Square brackets hold non-standard residues; d marks the D form. Peptide text beside a SMILES is read from it. Nle = CCCC[C@H](N)C(=O)O

Assays:
[1] = Lowering of blood pressure, in vivo testing by the general procedure of Example III
[2] = molecular target: T1, cultured rat pituitary cells (Rattus norvegicus, UniProt P35353); assay: Stimulation of ACTH and β-endorphin secretion by cultured rat pituitary cells (general procedure of Example III); assay type: cell-based; details: general procedure of Example III
T1 sequence (P35353 24-415): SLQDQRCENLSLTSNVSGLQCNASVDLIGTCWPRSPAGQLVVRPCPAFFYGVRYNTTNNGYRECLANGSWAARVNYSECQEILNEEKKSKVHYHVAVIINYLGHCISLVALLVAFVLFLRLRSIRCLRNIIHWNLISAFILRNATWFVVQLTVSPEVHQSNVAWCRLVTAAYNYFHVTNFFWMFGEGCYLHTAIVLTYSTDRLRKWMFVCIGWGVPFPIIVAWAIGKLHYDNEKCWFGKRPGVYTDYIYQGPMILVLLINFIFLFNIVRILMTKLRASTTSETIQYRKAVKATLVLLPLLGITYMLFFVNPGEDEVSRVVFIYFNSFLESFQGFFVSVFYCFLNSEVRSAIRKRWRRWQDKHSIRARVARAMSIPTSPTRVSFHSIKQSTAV
Method: The synthetic peptide AHC and oCRF were examined for their effects on the secretion of ACTH and B-endorphin in vitro and was also in vivo. The potency of synthetic oCRF to stimulate the secretion of ACTH and β-endorphin by cultured rat pituitary cells was measured using the procedure as generally set forth in Endocrinology, 91, 562 (1972). […] In.vivo testing is carried out using the general procedure set forth in C. Rivier et al., Science, 218, 377 (1982).

| Compound | lowering of blood pressure [1] | secretion of ACTH and β-END-LI [2] |
| --- | --- | --- |
| CC[C@H](C)[C@H](NC(=O)[C@H](CC(=O)O)NC(=O)[C@H](CC(C)C)NC(=O)[C@H](CC(C)C)NC(=O)[C@H](CCCCN)NC(=O)[C@H](CCCNC(=N)N)NC(=O)[C@H](CC(N)=O)NC(=O)[C@H](CO)NC(=O)[C@H](Cc1c[nH]cn1)NC(=O)[C@H](C)NC(=O)[C@H](CCC(N)=O)NC(=O)[C@H](CCC(N)=O)NC(=O)[C@H](C)NC(=O)[C@H](CC(C)C)NC(=O)[C@H](CCC(N)=O)NC(=O)[C@H](CC(=O)O)NC(=O)[C@H](C)NC(=O)[C@H](CCCCN)NC(=O)[C@H](CC(=O)O)NC(=O)[C@H](CCSC)NC(=O)[C@H](CCC(=O)O)NC(=O)[C@H](CC(C)C)NC(=O)[C@@H](NC(=O)[C@H](CCC(=O)O)NC(=O)[C@H](CCCNC(=N)N)NC(=O)[C@H](CC(C)C)NC(=O)[C@H](CC(C)C)NC(=O)[C@H](Cc1c[nH]cn1)NC(=O)[C@H](Cc1ccccc1)NC(=O)[C@@H](NC(=O)[C@H](CC(C)C)NC(=O)[C@H](CC(=O)O)NC(=O)[C@H](CC(C)C)NC(=O)[C@H](CO)NC(=O)[C@@H](NC(=O)[C@H]1CCCN1)[C@@H](C)CC)[C@@H](C)O)C(C)C)C(=O)N[C@@H](C)C(N)=O [[D-Pro^4,Asp^22]-oCRF(4-41)] (H-[dP]ISLDLTFHLLREVLEMDKADQLAQQAHSNRKLLDIA-NH2) | very significant lowering of blood pressure | stimulates |
| CCCC[C@H](NC(=O)[C@H](CCC(=O)O)NC(=O)[C@H](CC(C)C)NC(=O)[C@H](CCCC)NC(=O)[C@H](CCC(=O)O)NC(=O)[C@H](CCCNC(=N)N)NC(=O)[C@H](CC(C)C)NC(=O)[C@H](CC(C)C)NC(=O)[C@H](Cc1c[nH]cn1)NC(=O)[C@H](Cc1ccccc1)NC(=O)[C@@H](NC(=O)[C@H](CC(C)C)NC(=O)[C@H](CC(=O)O)NC(=O)[C@H](CC(C)C)NC(=O)[C@H](CO)NC(=O)[C@@H](NC(=O)[C@@H]1CCCN1C(=O)[C@@H]1CCCN1C(=O)[C@H](N)Cc1ccc(O)cc1)[C@@H](C)CC)[C@@H](C)O)C(=O)N[C@@H](C)C(=O)N[C@@H](CCCCN)C(=O)N[C@@H](C)C(=O)N[C@@H](CCC(=O)O)C(=O)N[C@@H](CCC(N)=O)C(=O)N[C@@H](CCC(=O)O)C(=O)N[C@@H](C)C(=O)N[C@@H](CCC(=O)O)C(=O)N[C@@H](CCC(N)=O)C(=O)N[C@@H](C)C(=O)N[C@@H](C)C(=O)N[C@@H](CC(C)C)C(=O)N[C@@H](CC(N)=O)C(=O)N[C@@H](CCCNC(=N)N)C(=O)N[C@@H](CC(C)C)C(=O)N[C@@H](CC(C)C)C(=O)N[C@@H](CC(C)C)C(=O)N[C@@H](CCC(=O)O)C(=O)N[C@@H](CCC(=O)O)C(=O)N[C@@H](C)C(N)=O [[D-Tyr^3, Nle^18,21)-AHC(3-41)] (H-[dY]PPISLDLTFHLLRE[Nle]LE[Nle]AKAEQEAEQAALNRLLLEEA-NH2) | very significant lowering of blood pressure | stimulates |
| CC[C@H](C)[C@H](NC(=O)[C@H](CCC(=O)O)NC(=O)[C@H](CC(=O)O)NC(=O)[C@H](CCSC)NC(=O)[C@H](CC(C)C)NC(=O)[C@H](CCCCNC(=N)N)NC(=O)[C@H](CCCNC(=N)N)NC(=O)[C@H](CC(N)=O)NC(=O)[C@H](CC(N)=O)NC(=O)[C@H](C)NC(=O)[C@H](C)NC(=O)[C@H](CCC(N)=O)NC(=O)[C@H](CCC(N)=O)NC(=O)[C@H](CCCCN)NC(=O)[C@H](CC(C)C)NC(=O)[C@H](CCCCN)NC(=O)[C@H](CCC(=O)O)NC(=O)[C@H](CCC(N)=O)NC(=O)[C@H](CCCCN)NC(=O)[C@H](CCC(=O)O)NC(=O)[C@@H](NC(=O)[C@H](CCC(=O)O)NC(=O)[C@@H](NC(=O)[C@H](CCSC)NC(=O)[C@H](CCCCN)NC(=O)[C@H](CCCNC(=N)N)NC(=O)[C@H](CC(C)C)NC(=O)[C@H](CC(C)C)NC(=O)[C@H](CCC(=O)O)NC(=O)[C@H](CC(C)C)NC(=O)[C@H](CO)NC(=O)[C@H](CC(C)C)NC(=O)[C@H](CC(=O)O)NC(=O)[C@@H](NC(=O)[C@H](CO)NC(=O)[C@@H](NC(=O)[C@@H]1CCCN1C(=O)[C@@H]1CCCN1C(=O)CNC(=O)[C@@H]1CCC(=O)N1)[C@@H](C)CC)[C@@H](C)CC)[C@@H](C)CC)[C@@H](C)CC)C(N)=O [[Leu^26, Har^35, Met, Glu^39]-sauvagine] | very significant lowering of blood pressure | stimulates |
| CCCC[C@H](NC(=O)[C@H](CCC(=O)O)NC(=O)[C@H](CC(C)C)NC(=O)[C@H](CCCC)NC(=O)[C@H](CCC(=O)O)NC(=O)[C@H](CCCNC(=N)N)NC(=O)[C@H](CC(C)C)NC(=O)[C@H](CC(C)C)NC(=O)[C@H](Cc1c[nH]cn1)NC(=O)[C@H](Cc1ccccc1)NC(=O)[C@@H](NC(=O)[C@H](CC(C)C)NC(=O)[C@H](CC(=O)O)NC(=O)[C@H](CC(C)C)NC(=O)[C@H](CO)NC(=O)[C@@H](NC(=O)[C@@H]1CCCN1)[C@@H](C)CC)[C@@H](C)O)C(=O)N[C@@H](C)C(=O)N[C@@H](CCCNC(=N)N)C(=O)N[C@@H](C)C(=O)N[C@@H](CCC(=O)O)C(=O)N[C@@H](CCC(N)=O)C(=O)N[C@@H](CCC(=O)O)C(=O)N[C@@H](C)C(=O)N[C@@H](CCC(=O)O)C(=O)N[C@@H](CCC(N)=O)C(=O)N[C@@H](C)C(=O)N[C@@H](C)C(=O)N[C@@H](CC(C)C)C(=O)N[C@@H](CC(N)=O)C(=O)N[C@@H](CCCNC(=N)N)C(=O)N[C@@H](CC(C)C)C(=O)N[C@@H](CC(C)C)C(=O)N[C@@H](CC(C)C)C(=O)N[C@@H](CCC(=O)O)C(=O)N[C@@H](CCC(=O)O)C(=O)N[C@@H](C)C(N)=O [[Nle^18,21, Arg^23]-AHC(5-41)] (H-PISLDLTFHLLRE[Nle]LE[Nle]ARAEQEAEQAALNRLLLEEA-NH2) | very significant lowering of blood pressure | stimulates |
| CCCC[C@H](NC(=O)[C@H](CCC(=O)O)NC(=O)[C@H](CC(C)C)NC(=O)[C@H](CCCC)NC(=O)[C@H](CCC(=O)O)NC(=O)[C@H](CCCNC(=N)N)NC(=O)[C@H](CC(C)C)NC(=O)[C@H](CC(C)C)NC(=O)[C@H](Cc1c[nH]cn1)NC(=O)[C@H](Cc1ccccc1)NC(=O)[C@@H](NC(=O)[C@H](CC(C)C)NC(=O)[C@H](CC(=O)O)NC(=O)[C@H](CC(C)C)NC(=O)[C@H](CO)NC(=O)[C@@H](N)[C@@H](C)CC)[C@@H](C)O)C(=O)N[C@@H](C)C(=O)N[C@@H](CCCCN)C(=O)N[C@@H](C)C(=O)N[C@@H](CCC(=O)O)C(=O)N[C@@H](CCC(N)=O)C(=O)N[C@@H](CCC(=O)O)C(=O)N[C@@H](C)C(=O)N[C@@H](CCC(=O)O)C(=O)N[C@@H](CCC(N)=O)C(=O)N[C@@H](C)C(=O)N[C@@H](C)C(=O)N[C@@H](CC(C)C)C(=O)N[C@@H](CC(N)=O)C(=O)N[C@@H](CCCNC(=N)N)C(=O)N[C@@H](CCCNC(=N)N)C(=O)N[C@@H](CC(C)C)C(=O)N[C@@H](CC(C)C)C(=O)N[C@@H](CCC(=O)O)C(=O)N[C@@H](CCC(=O)O)C(=O)N[C@@H](C)C(N)=O [[Nle^18,21, Arg^36]-AHC(6-41)] (H-ISLDLTFHLLRE[Nle]LE[Nle]AKAEQEAEQAALNRRLLEEA-NH2) | very significant lowering of blood pressure | stimulates |
| CCCC[C@H](NC(=O)[C@H](CCC(=O)O)NC(=O)[C@H](CCCNC(=N)N)NC(=O)[C@H](CC(C)C)NC(=O)[C@H](CC(C)C)NC(=O)[C@H](Cc1c[nH]cn1)NC(=O)[C@H](Cc1ccccc1)NC(=O)[C@@H](NC(=O)[C@H](CC(C)C)NC(=O)[C@H](CC(=O)O)NC(=O)[C@H](CC(C)C)NC(=O)[C@H](CO)NC(=O)[C@@H](NC(=O)[C@@H]1CCCN1C(=O)[C@@H]1CCCN1C(=O)[C@H](CCC(=O)O)NC(=O)[C@@H](N)CCC(N)=O)[C@@H](C)CC)[C@@H](C)O)C(=O)N[C@@H](CC(C)C)C(=O)N[C@@H](CCC(=O)O)C(=O)N[C@@H](CCSC)C(=O)N[C@H](C(=O)N[C@@H](CCCCN)C(=O)N[C@@H](C)C(=O)N[C@@H](CC(=O)O)C(=O)N[C@@H](CCC(N)=O)C(=O)N[C@@H](CC(C)C)C(=O)N[C@@H](C)C(=O)N[C@@H](CCC(N)=O)C(=O)N[C@@H](CCC(N)=O)C(=O)N[C@@H](C)C(=O)N[C@@H](Cc1c[nH]cn1)C(=O)N[C@@H](CO)C(=O)N[C@@H](CC(N)=O)C(=O)N[C@@H](CCCNC(=N)N)C(=O)N[C@@H](CCCCN)C(=O)N[C@@H](Cc1ccc(O)cc1)C(=O)N[C@@H](CC(C)C)C(=O)N[C@@H](CC(=O)O)C(=O)N[C@@H](CCC(=O)O)C(=O)N[C@@H](C)C(N)=O)[C@@H](C)O [[Nle^18,Tyr^37,Glu^40]-oCRF(2-41)] (H-QEPPISLDLTFHLLRE[Nle]LEMTKADQLAQQAHSNRKYLDEA-NH2) | very significant lowering of blood pressure | stimulates |
| Ac-GEEPPISLDLTFHLLREVLEMARAEQLAQQAHLNRKLMEEI-NH2 [[Acetyl-Gly^1, Leu^33, Glu^40]-rCRF] | very significant lowering of blood pressure | stimulates |
| Ac-PPISLDLTFHLLREVLEMARAEQLAEQAHSNRKYMEEI-NH2 | very significant lowering of blood pressure to a greater extent than rCRF | stimulates |
| H-PPISIDLSLELLRKMIEIAKQEKEKEQAANNRLLMDTI-NH2 | very significant lowering of blood pressure | stimulates |
| H-PPISLDLTFHLLREVLEMARAEQLAQQAHLNRKLMEEI-NH2 | very significant lowering of blood pressure | stimulates |
